Laboratory results taken from ChEMBL document CHEMBL4421719, “Modulation of k2p channels” (2016).
Activity calls are given as the source filed them. No cut-off for these calls is given here.

Columns and labels:
[1] = species on record: Homo sapiens; assay: Selectivity index, ratio of IC50 for inhibition of Trk1p (unknown origin) expressed in SGY1528 yeast cells assessed as inhibition of cell growth by alamar blue dye based assay to IC50 for inhibition of K2P2.1 (unknown origin) expressed in SGY1528 yeast cells assessed as inhibition of cell growth by alamar blue dye based assay
[2] = biological target: T1, Potassium channel subfamily K member 2 (Homo sapiens) (UniProt O95069); assay: Inhibition of K2P2.1 (unknown origin) expressed in SGY1528 yeast cells assessed as inhibition of cell growth at 10 uM incubated for 24 hrs by alamar blue dye based assay relative to control
T1 sequence (whole entry): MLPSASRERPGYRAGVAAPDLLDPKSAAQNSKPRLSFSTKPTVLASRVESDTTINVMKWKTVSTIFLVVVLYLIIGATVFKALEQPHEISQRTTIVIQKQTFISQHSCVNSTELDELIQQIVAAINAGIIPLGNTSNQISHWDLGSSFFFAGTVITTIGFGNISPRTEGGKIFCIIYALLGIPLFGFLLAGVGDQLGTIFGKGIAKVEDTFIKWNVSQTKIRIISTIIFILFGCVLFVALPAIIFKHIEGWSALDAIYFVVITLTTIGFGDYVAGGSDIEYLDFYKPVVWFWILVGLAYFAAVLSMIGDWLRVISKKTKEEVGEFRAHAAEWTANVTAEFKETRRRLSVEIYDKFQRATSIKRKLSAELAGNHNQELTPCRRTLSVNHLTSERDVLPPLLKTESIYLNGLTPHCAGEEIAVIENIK

[3] = biological target: T1, Potassium channel subfamily K member 2 (Homo sapiens); assay: Activation of K2P2.1 (unknown origin) expressed in Xenopus oocytes assessed as effect on channel currents at +40 mV holding potential at 100 uM by two-electrode voltage clamp assay; assay type: cell-based
[4] = biological target: T1, Potassium channel subfamily K member 2 (Homo sapiens); assay: Inhibition of K2P2.1 (unknown origin) expressed in Xenopus oocytes assessed as effect on channel currents at -80 mV holding potential at 100 uM by two-electrode voltage clamp assay relative to control; assay type: cell-based
[5] = biological target: T2, Potassium channel subfamily K member 2 (Homo sapiens, UniProt O95069); assay: Inhibition of K2P2.1 (unknown origin) expressed in Xenopus oocytes assessed as effect on channel currents at -80 mV holding potential by two-electrode voltage clamp assay; assay type: cell-based
T2 sequence (O95069 whole entry): T1 sequence (whole entry)

[6] = biological target: T1, Potassium channel subfamily K member 2 (Homo sapiens); assay: Antagonist activity at K2P2.1 (unknown origin) expressed in Xenopus oocytes assessed as suppression of channel currents at 20 uM at -80 mV holding potential by two-electrode voltage clamp assay relative to control; assay type: cell-based
[7] = biological target: T3, Potassium channel subfamily K member 10 (Homo sapiens, UniProt P57789); assay: Activation of K2P10.1 (unknown origin) expressed in Xenopus oocytes assessed as effect on channel currents at -80 mV holding potential by two-electrode voltage clamp assay; assay type: cell-based
T3 sequence (P57789 whole entry): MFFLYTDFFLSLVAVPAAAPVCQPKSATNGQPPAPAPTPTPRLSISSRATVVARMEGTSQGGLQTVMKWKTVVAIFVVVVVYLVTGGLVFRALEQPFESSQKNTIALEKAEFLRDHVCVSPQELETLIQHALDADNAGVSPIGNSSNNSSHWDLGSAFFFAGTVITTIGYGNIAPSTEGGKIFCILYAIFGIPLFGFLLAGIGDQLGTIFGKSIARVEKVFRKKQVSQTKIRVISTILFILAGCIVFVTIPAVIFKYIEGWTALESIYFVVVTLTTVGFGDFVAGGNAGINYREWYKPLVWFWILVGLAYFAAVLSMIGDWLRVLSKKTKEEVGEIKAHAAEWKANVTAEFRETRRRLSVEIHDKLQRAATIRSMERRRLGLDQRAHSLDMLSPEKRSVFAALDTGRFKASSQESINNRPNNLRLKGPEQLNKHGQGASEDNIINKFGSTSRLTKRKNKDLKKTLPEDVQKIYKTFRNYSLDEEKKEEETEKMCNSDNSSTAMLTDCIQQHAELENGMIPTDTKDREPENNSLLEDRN

[8] = biological target: T1, Potassium channel subfamily K member 2 (Homo sapiens); assay: Activation of K2P2.1 (unknown origin) expressed in Xenopus oocytes assessed as effect on channel currents at +40 mV holding potential at 400 uM by two-electrode voltage clamp assay; assay type: cell-based
[9] = biological target: T1, Potassium channel subfamily K member 2 (Homo sapiens); assay: Reversible activation of K2P2.1 (unknown origin) expressed in Xenopus oocytes assessed as effect on channel currents at 100 uM at -80 mV holding potential by two-electrode voltage clamp assay relative to control; assay type: cell-based
[10] = biological target: Potassium channel subfamily K member 3 (Homo sapiens) (UniProt O14649); assay: Activation of K2P3.1 (unknown origin) expressed in Xenopus oocytes assessed as effect on channel currents at -80 mV holding potential by two-electrode voltage clamp assay relative to control; assay type: cell-based
[11] = biological target: Potassium voltage-gated channel subfamily KQT member 2 (Homo sapiens) (UniProt O43526); assay: Activation of Kv7.2 (unknown origin) expressed in Xenopus oocytes assessed as effect on channel currents at -80 mV holding potential by two-electrode voltage clamp assay relative to control; assay type: cell-based
[12] = biological target: T1, Potassium channel subfamily K member 2 (Homo sapiens); assay: Activation of K2P2.1 (unknown origin) expressed in Xenopus oocytes assessed as effect on channel currents at -80 mV holding by two-electrode voltage clamp assay relative to control; assay type: cell-based
[13] = biological target: Potassium voltage-gated channel subfamily KQT member 2 (Homo sapiens) (UniProt O43526); assay: Activation of Kv7.2 (unknown origin) expressed in Xenopus oocytes assessed as effect on channel currents at 100 uM at -80 mV holding potential by two-electrode voltage clamp assay relative to control; assay type: cell-based
[14] = biological target: T4, Potassium channel subfamily K member 10 (Homo sapiens) (UniProt P57789); assay: Activation of K2P10.1 (unknown origin) expressed in Xenopus oocytes assessed as effect on channel currents at 500 uM at -80 mV holding potential by two-electrode voltage clamp assay; assay type: cell-based
T4 sequence (whole entry): T3 sequence (P57789 whole entry)

[15] = biological target: Potassium channel subfamily K member 3 (Homo sapiens) (UniProt O14649); assay: Activation of K2P3.1 (unknown origin) expressed in Xenopus oocytes assessed as effect on channel currents at -80 mV holding potential at 500 uM by two-electrode voltage clamp assay relative to control; assay type: cell-based
[16] = biological target: Potassium voltage-gated channel subfamily KQT member 2 (Homo sapiens) (UniProt O43526); assay: Activation of Kv7.2 (unknown origin) expressed in Xenopus oocytes assessed as effect on channel currents at 500 uM at -80 mV holding potential by two-electrode voltage clamp assay relative to control; assay type: cell-based
[17] = biological target: T1, Potassium channel subfamily K member 2 (Homo sapiens); assay: Activation of K2P2.1 (unknown origin) expressed in Xenopus oocytes assessed as effect on channel currents at 200 uM at -80 mV holding potential by two-electrode voltage clamp assay; assay type: cell-based
[18] = biological target: T1, Potassium channel subfamily K member 2 (Homo sapiens); assay: Activation of K2P2.1 (unknown origin) expressed in Xenopus oocytes assessed as effect on channel currents at 500 uM at -80 mV holding potential by two-electrode voltage clamp assay; assay type: cell-based

Potassium voltage-gated channel subfamily KQT member 2 (Homo sapiens), sequence (O43526 whole entry): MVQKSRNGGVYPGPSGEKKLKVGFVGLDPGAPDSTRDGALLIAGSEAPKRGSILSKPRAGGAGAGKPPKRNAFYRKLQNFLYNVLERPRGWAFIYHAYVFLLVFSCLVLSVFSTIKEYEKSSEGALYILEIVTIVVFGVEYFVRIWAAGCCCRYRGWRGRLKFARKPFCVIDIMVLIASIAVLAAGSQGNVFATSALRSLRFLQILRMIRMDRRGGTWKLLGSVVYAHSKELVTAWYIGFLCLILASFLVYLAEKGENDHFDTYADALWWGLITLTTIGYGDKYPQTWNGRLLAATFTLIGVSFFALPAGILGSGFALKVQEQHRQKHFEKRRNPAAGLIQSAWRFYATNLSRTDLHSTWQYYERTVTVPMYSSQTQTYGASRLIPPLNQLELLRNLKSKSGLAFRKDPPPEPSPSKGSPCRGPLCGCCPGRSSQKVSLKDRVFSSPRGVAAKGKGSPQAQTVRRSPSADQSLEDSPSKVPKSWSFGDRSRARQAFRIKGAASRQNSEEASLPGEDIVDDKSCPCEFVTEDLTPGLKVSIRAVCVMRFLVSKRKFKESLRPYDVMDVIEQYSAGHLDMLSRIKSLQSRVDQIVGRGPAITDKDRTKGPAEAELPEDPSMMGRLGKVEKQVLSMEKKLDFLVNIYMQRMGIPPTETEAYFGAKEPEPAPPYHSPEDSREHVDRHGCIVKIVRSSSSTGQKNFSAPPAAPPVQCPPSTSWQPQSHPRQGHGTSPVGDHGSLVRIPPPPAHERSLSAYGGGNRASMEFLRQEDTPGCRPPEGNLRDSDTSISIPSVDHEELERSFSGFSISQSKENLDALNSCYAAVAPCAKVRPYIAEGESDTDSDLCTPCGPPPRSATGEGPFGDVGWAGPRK
Potassium channel subfamily K member 3 (Homo sapiens), sequence (O14649 whole entry, looked up): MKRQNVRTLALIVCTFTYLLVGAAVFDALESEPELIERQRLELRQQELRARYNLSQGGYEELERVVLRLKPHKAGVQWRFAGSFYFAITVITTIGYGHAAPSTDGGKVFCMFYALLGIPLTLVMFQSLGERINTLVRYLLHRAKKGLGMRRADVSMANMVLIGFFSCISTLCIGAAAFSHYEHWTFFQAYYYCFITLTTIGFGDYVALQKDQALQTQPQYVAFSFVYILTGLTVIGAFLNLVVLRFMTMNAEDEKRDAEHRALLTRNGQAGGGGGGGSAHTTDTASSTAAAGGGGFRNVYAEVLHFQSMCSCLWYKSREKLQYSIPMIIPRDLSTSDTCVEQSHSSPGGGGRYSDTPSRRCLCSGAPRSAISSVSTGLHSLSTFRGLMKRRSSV

**Q.** `Cc1cccc(-n2ncc3c(NCCc4ccccc4)ncnc32)c1` was tested. Which Ratio IC50 [1] did it give?
**A.** The Ratio IC50 was < 2.

**Q.** And the growth inhibition (GI) [2]?
**A.** The growth inhibition (GI) was 66%.

**Q.** And the Activity [3]?
**A.** The Activity was “Active”.

**Q.** And the inhibition [4]?
**A.** The inhibition was 70%.

**Q.** What about the IC50 [5] of the same compound?
**A.** The IC50 was 21 µM.

**Q.** What about the inhibition [6] of the same compound?
**A.** Its inhibition is 30%.

**Q.** Which results are given for `O=C(O)CCn1c2ccc(Cl)cc2c2cc(Cl)ccc21`?
**A.** EC50 [7]: ≥ 250 µM; Ratio IC50 [1]: < 2; growth inhibition (GI) [2]: 66%; Activity [8]: Active; fold change (FC) [9]: < 11; Activity [10]: inactive; Activity [11]: inactive; Emax [12]: 11; Activity [13]: inactive; Emax [14]: 10.1; Emax [15]: 1.2; Emax [16]: 1.8; Activity [17]: Active; Activity [18]: Active
